From ChEMBL document CHEMBL1649365, “Molecular modeling studies on imidazo[4,5-b]pyridine derivatives as Aurora A kinase inhibitors using 3D-QSAR and docking approaches” (Eur J Med Chem, 2011)

Target: T1, Aurora kinase A (Homo sapiens, UniProt O14965)
T1 sequence (O14965 whole entry): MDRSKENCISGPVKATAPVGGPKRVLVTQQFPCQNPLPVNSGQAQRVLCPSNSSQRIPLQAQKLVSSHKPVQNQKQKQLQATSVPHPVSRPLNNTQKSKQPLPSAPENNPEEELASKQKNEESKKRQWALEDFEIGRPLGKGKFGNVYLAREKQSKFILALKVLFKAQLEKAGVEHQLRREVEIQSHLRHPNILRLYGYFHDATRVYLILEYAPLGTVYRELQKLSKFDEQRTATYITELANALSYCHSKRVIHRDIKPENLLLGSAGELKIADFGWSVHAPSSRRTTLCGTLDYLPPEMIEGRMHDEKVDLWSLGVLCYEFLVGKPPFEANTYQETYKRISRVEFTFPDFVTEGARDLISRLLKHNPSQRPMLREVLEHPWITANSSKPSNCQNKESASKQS
Assay: Inhibition of Aurora A

Row | SMILES | IC50
1 | O=C(CN1CCN(c2c(Br)cnc3[nH]cnc23)CC1)Nc1nccs1 | 81 nM
2 | CN(C)c1ccc(-c2nc3c(N4CCN(CC(=O)Nc5ccccc5)CC4)c(Br)cnc3[nH]2)cc1 | 277 nM
3 | COc1ccc(-c2nc3c(N4CCN(Cc5coc(C(C)C)n5)CC4)c(Br)cnc3[nH]2)cc1 | 81 nM
4 | Cc1cc(CN2CCN(c3c(Cl)cnc4nc(-c5ccc(N6CCN(C)CC6)cc5)[nH]c34)CC2)no1 | 10 nM
5 | c1ccc(-c2ccc(-c3nc4cccnc4[nH]3)cc2)nc1 | 4400 nM

Second part, the compound after the results:

Row | IC50 | SMILES
6 | 29 nM | Cc1cc(CN2CCN(c3c(Cl)cnc4nc(-c5ccc(OCCO)cc5)[nH]c34)CC2)no1
7 | 55 nM | CC(c1ccncc1)N1CCN(c2c(Br)cnc3[nH]c(-c4ccc(N(C)C)cc4)nc23)CC1 (configuration not stated)
8 | 9 nM | COc1ccc(-c2nc3c(N4CCN(Cc5ccncc5)CC4)c(Br)cnc3[nH]2)cc1
9 | 14 nM | CC(=O)c1cccc(-c2ccc(-c3nc4ncc(Br)c(N5CCN(Cc6cc(C)on6)CC5)c4[nH]3)cc2)c1
10 | 10 nM | Cc1cc(CN2CCN(c3c(Br)cnc4[nH]c(-c5ccc(N6CCNCC6)cc5)nc34)CC2)no1
11 | 10 nM | Cc1cc(CN2CCN(c3c(Br)cnc4[nH]c(-c5ccc(Cn6cccn6)cc5)nc34)CC2)no1
12 | 3 nM | Cc1cc(CN2CCN(c3c(Cl)cnc4nc(-c5ccc(Cn6cccn6)cc5)[nH]c34)CC2)no1
